The test system of one assay is AKT. As to the kind of experiment: AKT phosphothreonine 308 Western blot, Hek293 cells. The assay is classed as cell-based. The method, then:
To determine the physiological role of Ras signaling in Hek293 cells, a well-known Ras effector, phosphoinositol-3 kinase (PI3-K) and its target, AKT (a serine/threonine kinase which participates in a variety of cellular effects including cell survival, adhesion, and cell growth) were examined as follows. Hek293 cells received no pretreatment or were pretreated for 20 minutes with H89 (10 μM), PP2 (10 μM), or LY (10 μM), and stimulated for 5 minutes with isoproterenol. Cell lysates were analyzed by Western blotting for phospho-AKT (PAKT 308, Cell Signaling, Beverly, Mass.) or total AKT (Cell Signaling) as a control. Isoproterenol activated AKT, as measured by phosphorylation-specific antibodies to phosphothreonine 308 (AKT). This phosphorylation required P13-K as LY blocked isoproterenol-induced phosphorylation at this site. Moreover, this phosphorylation was blocked by PP2, but not H89, indicating the requirement of SFKs, but not PKA. Therefore, isoproterenol's activation of AKT proceeds through Src and PI3-K but not PKA.
Similar amounts of cell lysate (determined by protein concentrations) were immunoprecipitated using an agarose-coupled HA antibody followed by Western blotting for phospho-AKT (PHA-AKT 308) or total HA-AKT with an HA antibody (12CA5, Boehringer Mannheim, Indianapolis, Ind.).

A further assay has as its system Rap1. In words: Rap1 activation affinity assay (GST-RalGDS pull-down), NIH3T3 cells. The assay is classed as cell-based. The method, then: NIH3T3 cells (American Type Culture Collection, ATCC, Manassas, Va.) were cultured in Dulbecco-Modified Eagle Medium (DMEM) plus 10% fetal calf serum, penicillin/streptomycin, and L-glutamine at 37° C. in 5% CO2. Cells were maintained in serum-free DMEM for 16 hours at 37° C. in 5% CO2 prior to treatment. NIH3T3 cells were trasfected with Flag-Rap1 (see Vossler et al., Cell, 89:73-82, 1997) or stimulated with Forskolin (10 μM, Cal Biochem, Riverside, Calif.) for five minutes. Forskolin treated cells received either a pretreatment or post-treatment with 10 μM N-[2(Bromocimamylamino) ethyl]-5-isoquinolinesulfonamide (H89) (Cal Biochem, Riverside, Calif.) for 20 minutes.
Cells were co-transfected with Flag-Rap1 at seventy to eighty percent confluency with the cDNA using a Lipofectamine 2000 kit (Gibco BRL, Rockville, Md.) according to the manufacturer's instructions. The control vector, pcDNA3 (Invitrogen Corp.), was included in each set of transfections to assure that each plate received the same amount of DNA. Following transfection, cells were allowed to recover in serum containing media for 24 hours. Cells were then starved overnight in serum-free DMEM before treatment and lysis.
After treatment, cells were lysed in ice-cold lysis buffer (50 mM Tris-HCL (pH 8.0), 10% glycerol, 1% nonidet P40, 200 mM NaCl, 2.5 mM MgCl2, 1 mM phenylmethylsulfonyl fluoride, 1 μM leupeptin, 10 μln soybean trypsin inhibitor, 10 mM NaF, 0.1 μM aprotinin, and 1 mM NaVO4). Nuclei and cytoskeleton were removed from equivalent amounts of lysate by centrifugation at 5,000 rpm for five minutes. The supernatant was centrifuged at 100,000×g for one hour at 4° C. and, the resultant membrane was resuspended in cold lysis buffer. Aliquots of the membrane fraction were analyzed for the presence of C3G by Western blotting. The cytosolic or membrane fractions of treated or untreated cells were mixed with equivalent amounts of lysates from untreated Flag-Rap1 transfected cells. The mixture was incubated at 37° C. for five minutes and equal amounts of lysate were analyzed using the Rap1 activation assay to monitor Flag-Rap 1 activation by Gst-RalGDS.
The Rap1 activation affinity assay was performed as follows. A GST fusion protein of the Rap1-binding domain of RalGDS (GST-RalGDS, Dr. Bos, Utrecht University, The Netherlands) was expressed in E. coli following induction by isopropyl-1thio-β-D-galactopyranoside. Active Rap1 was isolated as previously described (Franke et al., EMBO J. 16:252-9, 1997). Briefly, equivalent amounts of supernatants (500 μg) were incubated with GST-RalGDS-Rap1 binding domain coupled to glutathione beads. Following a one hour incubation at 4° C., beads were pelleted and rinsed threes times with ice-cold lysis buffer. […] Proteins were detected using enhanced chemiluminescence.

On to `CC(C)(C)n1nc(-c2ccc(Cl)cc2)c2c(N)ncnc21` [PP2, 4-amino-5-(4-chlorophenyl)-7-(t-butyl)pyazolo[3,4-d]pyrimidine], for which the “Effect of inhibitor on isoproterenol-induced AKT phosphorylation” value in the assay on AKT (10 μM, 20 minutes pretreatment) is recorded as “blocked”. Take `CC(C)NCC(O)c1ccc(O)c(O)c1` (centres unmarked) [isoproterenol]: in the assay with AKT (5 minutes), the “Activation of AKT (phosphothreonine 308)” value is given as “activated AKT”. Moreover, the “Activation of endogenous Rap1” value in the assay with Rap1 (NIH3T3 cells, 10 μM, five minutes) is reported as “activated Rap1”.

Consider `O=S(=O)(NCCNC/C=C/c1ccc(Br)cc1)c1cccc2cnccc12` [H89, N-[2(Bromocimamylamino)ethyl]-5-isoquinolinesulfonamide], for which the “Effect on Forskolin activation of Flag-Rap1 in trans” value is reported as “still able to activate Flag-Rap1 in trans” with Rap1 (added ten minutes after Forskolin) and “blocked” with Rap1 (pretreatment, 10 μM, 20 minutes).
